In the assay the target is Retinol-binding protein 4 (Homo sapiens, UniProt P02753). Nature of the assay: Displacement of [3H]-all-trans-retinol from biotinylated human urine derived RBP4 measured after 16 hrs by scintillation proximity assay. On the technique in general: Displacement assays read how much labelled ligand stays bound in the presence of the test substance.

As for `Cc1cc(C(=O)O)nc(N2CCC(COc3ccccc3C(F)(F)F)C2)n1` (stereo unspecified), the IC50 (as a rule, the concentration that inhibits the measured activity by half) was determined as 80 nM.

The values are drawn from BindingDB's records for doi:10.1021/acs.jmedchem.0c00996 (Albany College of Pharmacy and Health Sciences, 2020).
